The source of these data is patent publication US20030109418A1, “Methods for identifying compounds for inhibition of neoplastic lesions, and pharmaceutical compositions containing such compounds” (priority 1999, published 2003).

Test [1] has as its system NCI-H82. Description: Growth inhibition, neutral red assay, NCI-H82. In kind it is cell-based, human. As to conditions: free base, five days. The procedure:
(§1) Compound I's activity is not confined to activity against colon cancer cell lines or animal models of colon cancer. It has a broad range of anti-neoplastic effects in various neoplastic cell lines. Various types of human cancer cell lines were propagated under sterile conditions in RPMI 1640 medium with 10% fetal bovine serum, 2 mM L-glutamine and sodium bicarbonate. To determine growth inhibitory effects of Compound I, cells were seeded in 96-well plates at a density of 1000 cells per well. Twenty-four hours after plating, the cells were dosed with various concentrations of the free base of Compound I solubilized in DMSO (final concentration 0.1%). The effect of the drug on tumor cell growth was determined using the neutral red cytotoxicity assay following five days of continuous treatment. Neutral red is a dye that is selectively taken up by viable cells by an ATP-dependent transport mechanism.

In test [2] the test system is SW-480 colon adenocarcinoma cells. In words: Apoptosis fold induction protocol (DNA fragmentation ELISA). The note with it: Homo sapiens.
Test [3] relates to cGMP PDE purified from human colon HT-29 cultured tumor cells. In words: cGMP PDE inhibition assay. The test is classed as biochemical. The note with it: for IC50: read-out: IC50 for inhibition of cGMP PDE, HT-29 cell enzyme.
For test [4], the system named is NCI-H460. Description: Growth inhibition, neutral red assay, NCI-H460. The test is classed as cell-based, human. As to conditions: free base, five days. The procedure: as §1
The subject of test [5] is SW-480 colon adenocarcinoma cells. Description: Apoptosis induction determined by morphology, SW-480. The test is classed as cell-based, human. From the text:
Following treatment with a compound, cultures can be assayed for apoptosis and necrosis by florescent microscopy following labeling with acridine orange and ethidium bromide. The method for measuring apoptotic cell number has previously been described by Duke & Cohen, “Morphological And Biochemical Assays Of Apoptosis,” Current Protocols In Immunology, Coligan et al., eds., 3.17.1-3.17.16 (1992, which is incorporated herein by reference).
For example, floating and attached cells can be collected by trypsinization and washed three times in PBS. Aliquots of cells can be centrifuged. The pellet can then be re-suspended in media and a dye mixture containing acridine orange and ethidium bromide prepared in PBS and mixed gently. The mixture can then be placed on a microscope slide and examined for morphological features of apoptosis.
In addition, the percent apoptosis for Compound I in SW-480 is shown in Table 12 at various drug concentrations.

The test system of test [6] is LNCaP prostate tumor cell line. Description: Histone-associated DNA fragmentation in prostate tumor cells. In kind it is cell-based. The note with it: 50 μM free base, after 24 hours, sustained up to 4 days. The procedure: The androgen-sensitive prostate tumor cell line, LNCaP (from ATCC (Rockville, Md.)) was propogated under standard conditions using […] medium containing 5% fetal calve serum and 2 mM glutamine. Primary prostate epithelial cell cultures (PrEC) derived from normal prostate (from Clonetics Inc. (San Diego, Calif.)) were grown under the same conditions as the tumor cell line except a serum-free medium optimized for the growth of such cultures was used (Clonetics Inc). For the experiments, LNCaP or PrEC cells were seeded in 96 well plates at a density of 10,000 cells per well. After 24 hours, the cells were treated with either vehicle (0.1% DMSO) or 50 μM Compound I (free base) solubilized in DMSO. After various drug treatment times (4, 24, 48, 72, or 99 hours) the cells were lysed and processed for measurement of histone-associated DNA as an indicator of apoptotic cell death (see, Piazza et al., Cancer Research 57: 2452-2459, 1997).
This is in marked contrast to conventional chemotherapeutics that induce apoptosis or necrosis in rapidly growing normal and neoplastic cells alike.

In test [7] the test system is UISO-BCA-1. In words: Growth inhibition, neutral red assay, UISO-BCA-1. The test is classed as cell-based, human. The note with it: free base, five days. The procedure: as §1
Test [8] concerns the target T1, purified cyclooxygenase (Type 1, COX-I) from ram seminal vesicles (Ovis aries, UniProt P05979).
T1 construct: using purified cyclooxygenase from ram seminal vesicles as described previously; tissue Cayman Chemical, Ann Arbor, Mich; (named in the general protocol only); host or cells: ram seminal vesicles
T1 sequence (P05979 25-600): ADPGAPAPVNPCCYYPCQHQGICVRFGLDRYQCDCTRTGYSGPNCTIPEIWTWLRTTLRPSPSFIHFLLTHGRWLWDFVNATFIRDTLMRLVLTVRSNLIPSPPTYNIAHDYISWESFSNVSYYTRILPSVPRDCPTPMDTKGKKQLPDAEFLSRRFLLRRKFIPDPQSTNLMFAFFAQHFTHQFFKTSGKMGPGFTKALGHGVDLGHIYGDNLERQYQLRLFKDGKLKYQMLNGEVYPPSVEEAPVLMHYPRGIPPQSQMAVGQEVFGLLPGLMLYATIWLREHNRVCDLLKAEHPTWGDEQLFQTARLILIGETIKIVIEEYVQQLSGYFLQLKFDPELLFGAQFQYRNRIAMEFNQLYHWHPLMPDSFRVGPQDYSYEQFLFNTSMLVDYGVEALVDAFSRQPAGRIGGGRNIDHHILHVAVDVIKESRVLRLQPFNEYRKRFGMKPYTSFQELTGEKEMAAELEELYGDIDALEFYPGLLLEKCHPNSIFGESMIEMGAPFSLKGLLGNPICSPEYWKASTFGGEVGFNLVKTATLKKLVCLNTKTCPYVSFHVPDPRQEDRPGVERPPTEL
In words: COX inhibition assay, purified cyclooxygenase. The test is classed as biochemical. As to conditions: for inhibition at 100 µM: read-out: Cyclooxygenase inhibitory activity, % Inhibition at 100 μM.

The test system of test [9] is HT-29 colon adenocarcinoma cells. In words: Apoptosis by DNA fragmentation assay in HT-29. Also: key: −: Not active; +: Slightly active; ++: Moderately active; +++: Strongly active; ++++: Highly active. The test is classed as cell-based, human. The note with it: qualitative activity profile.

Where a name gives a salt, the structure may show the parent alone. Where only a bound is given, the exact number is not on record here.

For the compound `CC1=C(CC(=O)NCc2ccccc2)c2cc(F)ccc2/C1=C\c1ccncc1` [Compound I, (Z)-5-fluoro-2-methyl-(4-pyridylidene)-3-(N-benzyl)indenylacetamide hydrochloride], the GI50 was 1.7 µM in test [1] (Homo sapiens, NCI-H82, 120 h); 1.9 µM in [4] (Homo sapiens, NCI-H460, 120 h); 1.5 µM in test [7] (Homo sapiens, 120 h). Further, the “GI90 μM, NCI-H82” value in test [1] came to 5.8 µM. The concentration giving a half-maximal response (EC50) in test [2] (SW480, read-out: DNA fragmentation EC50) turned out to be 15000 nM. In test [3], the IC50 is 680 nM. The “GI90 μM, NCI-H460” value in [4] turned out to be 30.0 µM. Also, the results for the “% Apoptosis” value in test [5] (0.35 μM), in test [5] (0.7 μM) and in test [5] (1.5 μM) were 16%, 27% and 88%, respectively. The “histone-associated fragmented DNA in LNCaP” value in test [6] is “significant increase in fragmented DNA”. In addition, the “GI90 μM, UISO-BCA-1” value in test [7] amounted to 4.7 µM. The inhibition at 100 µM in test [8] is less than 25%.

`CC1=C(CC(=O)O)c2cc(F)ccc2/C1=C\c1ccc(S(C)(=O)=O)cc1` [Exisulind, 5-fluoro-2-methyl-1-(p-methylsulfonylbenzylidene)-3-indenylacetic acid]: the fold induction at 100 µM in [2] (SW480, read-out: Apoptosis-inducing activity, Fold induction at 100 μM, 100 μM, cell line not given) is less than 2. Further, in [3] (10 μM), the “cGMP PDE inhibitory activity, % Inhibition at 10 μM” value amounted to 39%. For the same compound, in test [3] (qualitative activity profile), the “PDE Inhibition” value is given as “++”. In addition, in test [3], the half-maximal inhibitory concentration (IC50) is 56000 nM. In [9], the Apoptosis result was “++”. The “COX Inhibition” value in [8] (qualitative activity profile) was “−”. Also, in test [8], the inhibition at 100 µM is less than 25%.
